# Results: patent US20120201824A1, “Compositions and Methods for Inhibiting an Oncogenic Protein to Enhance Immunogenicity” (priority 2008, published 2012)
# What was measured:
# [1] = system: CD274 mRNA; experiment: RT-PCR for CD274 mRNA in ALK+ TCL cells; assay type: cell-based, human; conditions: SUDHL-1 cells; rapamycin 300 nM, wortmannin 20 nM, U0126 15 μM, Jak3 inhibitor 1 μM
# Protocol: Total RNA was isolated using RNeasy Mini kit (Qiagen), treated with DNase I (Invitrogen), and reverse-transcribed by using Thermoscript RT-PCR system (Invitrogen) with random hexamers as cDNA synthesis primers. The following primer pairs were used for the cDNA amplification: β-actin, 5'[…] ID NO: 1) and 5'[…] ID NO: 2); CD274, 5'[…] ID NO: 3) and 5'[…] ID NO: 4). PCR was performed by using Platium […] polymerase (Invitrogen) for 21 cycles comprised of the denaturation step for 20 seconds at 94° C., annealing for 30 seconds at 58° C. and elongation for 30 seconds at 72° C. The PCR products were visualized by ethium bromide staining in 1.5% agarose gel. […] Inhibitors of: […] Marzec et al., 2007, Oncogene 26: 813-821; Marzec et al., 2007, Oncogene 26: 5606-5614; Marzec et al., 2008, Cancer Res 68: 1083-1091). A mixture of four STAT3 or STAT5b specific siRNA or non-targeting siRNA (all purchased from Dharmacon) was introduced into cells at 100 nM by lipofection with the hew generation Lipofectamine (DMRIE-C; Invitrogen). The procedure was repeated after 24 hours and the cells were cultured for an additional 24 hours. The cells were harvested at one time point 48 hours after first transfection. Extend of the protein knock-down was examined by Flow Cytometry and RT-PCR.
# [2] = system: CD274 protein; experiment: Flow cytometry for cell-surface CD274 protein in ALK+ TCL cells; assay type: cell-based, human; conditions: SUDHL-1 cells; rapamycin 300 nM, wortmannin 20 nM, U0126 15 μM, Jak3 inhibitor 1 μM
# Protocol: All antibodies were purchased from BD Pharmingen. The stained cells were applied to the flow cytometer (FACSCalibur; Becton Dickinson), and 20,000 events were analyzed. Results of the cell staining are presented as histograms with cell number on the vertical axis and relative fluorescence on the logarithmic horizontal axis. […] Inhibitors of: […] Marzec et al., 2007, Oncogene 26: 813-821; Marzec et al., 2007, Oncogene 26: 5606-5614; Marzec et al., 2008, Cancer Res 68: 1083-1091). A mixture of four STAT3 or STAT5b specific siRNA or non-targeting siRNA (all purchased from Dharmacon) was introduced into cells at 100 nM by lipofection with the hew generation Lipofectamine (DMRIE-C; Invitrogen). The procedure was repeated after 24 hours and the cells were cultured for an additional 24 hours. The cells were harvested at one time point 48 hours after first transfection. Extend of the protein knock-down was examined by Flow Cytometry and RT-PCR.
compound,measurement,setting,value
N#CC(=C(/N)Sc1ccccc1N)/C(C#N)=C(\N)Sc1ccccc1N [U0126],CD274 expression on the mRNA level (RT-PCR),[1],no detectable impact
same,CD274 expression on the protein level (flow cytometry),[2],no detectable impact
